Data: patent US7138361B2, “Herbicidal heterocycles” (E. I. du Pont de Nemours and Company, priority 2000, dated 2006)

Tests used:
Format in all cases: in vivo
corn (Zea mays) = experiment: Test C preemergence; conditions: for Plant response rating (0 to 100), Corn: Rate 500 g/ha, visual evaluation after 12 to 14 days
Method in brief: (§1)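 Visual 0–100 rating vs controls (0 = no effect, 100 = complete control) at 12–14 d, greenhouse. Compounds in non-phytotoxic solvent + surfactant; pre: sprayed after seeding; post: 1–4-leaf plants, 2–18 cm.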

[1] = test system: morningglory (Ipomoea hederacea); experiment: Test C preemergence; conditions: for Plant response rating (0 to 100), Morningglory: Rate 500 g/ha, visual evaluation after 12 to 14 days
Method in brief: as §1

[2] = test system: goosegrass (Eleusine indica); experiment: Test C preemergence; conditions: for Plant response rating (0 to 100), Goosegrass: Rate 500 g/ha, visual evaluation after 12 to 14 days
Method in brief: as §1

soybean (Glycine max) = experiment: Test C preemergence; conditions: for Plant response rating (0 to 100), Soybean: Rate 500 g/ha, visual evaluation after 12 to 14 days
Method in brief: as §1

[3] = test system: velvetleaf (Abutilon theophrasti); experiment: Test C preemergence; conditions: for Plant response rating (0 to 100), Velvetleaf: Rate 500 g/ha, visual evaluation after 12 to 14 days
Method in brief: as §1

Nightshade [4] = experiment: Test C preemergence
[5] = test system: yellow nutsedge (Cyperus esculentus); experiment: Test C preemergence; conditions: for Plant response rating (0 to 100), Nutsedge: Rate 500 g/ha, visual evaluation after 12 to 14 days
Method in brief: as §1

[6] = test system: woolly cupgrass (Eriochloa villosa); experiment: Test C preemergence; conditions: for Plant response rating (0 to 100), Cupgrass, Woolly: Rate 500 g/ha, visual evaluation after 12 to 14 days
Method in brief: as §1

[7] = test system: crabgrass (Digitaria sanguinalis); experiment: Test C preemergence; conditions: for Plant response rating (0 to 100), Crabgrass: Rate 500 g/ha, visual evaluation after 12 to 14 days
Method in brief: as §1

[8] = test system: bermudagrass (Cynodon dactylon); experiment: Test C preemergence; conditions: for Plant response rating (0 to 100 where 0 is no effect and 100 is complete control), Bermudagrass: Rate 500 g/ha, visual evaluation after 12 to 14 days
Method in brief: as §1

[9] = test system: pigweed (Amaranthus retroflexus); experiment: Test C preemergence; conditions: for Plant response rating (0 to 100), Pigweed: Rate 500 g/ha, visual evaluation after 12 to 14 days
Method in brief: as §1

[10] = test system: lambsquarters (Chenopodium album); experiment: Test C preemergence; conditions: for Plant response rating (0 to 100), Lambsquarters: Rate 500 g/ha, visual evaluation after 12 to 14 days
Method in brief: as §1

[11] = test system: giant foxtail (Setaria faberii); experiment: Test C preemergence; conditions: for Plant response rating (0 to 100), Foxtail, Giant: Rate 500 g/ha, visual evaluation after 12 to 14 days
Method in brief: as §1

[12] = test system: cocklebur (Xanthium strumarium); experiment: Test C preemergence; conditions: for Plant response rating (0 to 100), Cocklebur: Rate 500 g/ha, visual evaluation after 12 to 14 days
Method in brief: as §1

[13] = test system: johnsongrass (Sorghum halepense); experiment: Test C preemergence; conditions: for Plant response rating (0 to 100), Johnsongrass: Rate 500 g/ha, visual evaluation after 12 to 14 days
Method in brief: as §1

kochia (Kochia scoparia) = experiment: Test C preemergence; conditions: for Plant response rating (0 to 100), Kochia: Rate 500 g/ha, visual evaluation after 12 to 14 days
Method in brief: as §1

Sunflower = experiment: Test C preemergence; conditions: Rate 500 g/ha, visual evaluation after 12 to 14 days
[14] = test system: barnyardgrass (Echinochloa crus-galli); experiment: Test B preemergence
Method in brief: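 Pre: seeded pots sprayed, chemical in non-phytotoxic solvent/surfactant mix. Post: plants 2–18 cm, 1–4 leaf, same formulation. Greenhouse 13–15 d; visual % control vs untreated, 0–100 scale.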

Nightshade [15] = experiment: Test C preemergence; conditions: Rate 500 g/ha, visual evaluation after 12 to 14 days
[16] = Rate 125 g/ha, scale 0 to 100, 0 no effect, 100 complete control
[17] = preemergence, Rate 62 g/ha, scale 0 to 100
[18] = preemergence, Rate 250 g/ha, scale 0 to 100, 0 no effect, 100 complete control
[19] = Rate 250 g/ha, scale 0 to 100, 0 no effect, 100 complete control
[20] = Preemergence, Rate 500 g/ha, scale 0 to 100, 0 no effect, 100 complete control
[21] = preemergence, Rate 125 g/ha, scale of 0 to 100 where 0 is no effect and 100 is complete control, 13 to 15 days

CCC(CC)c1ccn(C2CCN(c3ccc(Cl)c(OC)c3)C2=O)n1 (stereo not shown) [Compound 118]
75: Plant response rating, Pigweed [9, 17]
0: Plant response rating, Corn (corn (Zea mays); [16]) | Plant response rating, Corn (corn (Zea mays); [17]) | Plant response rating, Morningglory [1, 17] | Plant response rating, Nutsedge [5, 16] | Plant response rating, Nutsedge [5, 17] | Plant response rating (0 to 100), Nutsedge ([5]; preemergence) | Plant response rating, Nutsedge [5, 18] | Plant response rating, Foxtail, Giant [11, 17] | Plant response rating, Cocklebur [12, 16] | Plant response rating, Cocklebur [12, 17] | Plant response rating (0 to 100), Cocklebur ([12]; preemergence) | Plant response rating, Cocklebur [12, 18] | Plant response rating, Johnsongrass [13, 17]
80: Plant response rating, Kochia (kochia (Kochia scoparia); [17])
90: Plant response rating, Morningglory [1, 18] | Plant response rating (0 to 100), Soybean (soybean (Glycine max); preemergence) | Plant response rating, Cupgrass, Woolly [6, 16]
20: Plant response rating, Morningglory [1, 16] | Plant response rating, Velvetleaf [3, 17]
40: Plant response rating, Soybean (soybean (Glycine max); [17]) | Plant response rating, Cupgrass, Woolly [6, 17] | Plant response rating, Johnsongrass [13, 16]
65: Plant response rating, Soybean (soybean (Glycine max); [18])
60: Plant response rating, Soybean (soybean (Glycine max); [16])
35: Plant response rating (0 to 100), Corn (corn (Zea mays); preemergence)
100: Plant response rating (0 to 100), Morningglory ([1]; preemergence) | Plant response rating, Goosegrass [2, 16] | Plant response rating, Goosegrass [2, 17] | Plant response rating (0 to 100), Goosegrass ([2]; preemergence) | Plant response rating, Goosegrass [2, 18] | Plant response rating, Velvetleaf [3, 16] | Plant response rating (0 to 100), Velvetleaf ([3]; preemergence) | Plant response rating, Velvetleaf [3, 18] | Plant response rating, Nightshade (Nightshade [4]; Rate 62 g/ha, scale 0 to 100) | Plant response rating, Nightshade (Nightshade [4]; [16]) | Plant response rating, Nightshade (Nightshade [4]; [19]) | Plant response rating (0 to 100), Cupgrass, Woolly ([6]; preemergence) | Plant response rating, Cupgrass, Woolly [6, 18] | Plant response rating, Crabgrass [7, 16] | Plant response rating, Crabgrass [7, 17] | Plant response rating (0 to 100), Crabgrass ([7]; preemergence) | Plant response rating, Crabgrass [7, 18] | Plant response rating, Bermudagrass [8, 16] | Plant response rating, Bermudagrass [8, 17] | Plant response rating (0 to 100 where 0 is no effect and 100 is complete control), Bermudagrass ([8]; preemergence) | Plant response rating, Bermudagrass [8, 18] | Plant response rating, Pigweed [9, 16] | Plant response rating (0 to 100), Pigweed ([9]; preemergence) | Plant response rating, Pigweed [9, 18] | Plant response rating, Lambsquarters [10, 16] | Plant response rating, Lambsquarters [10, 17] | Plant response rating (0 to 100), Lambsquarters ([10]; preemergence) | Plant response rating, Lambsquarters [10, 18] | Plant response rating, Foxtail, Giant [11, 16] | Plant response rating (0 to 100), Foxtail, Giant ([11]; preemergence) | Plant response rating, Foxtail, Giant [11, 18] | Plant response rating (0 to 100), Johnsongrass ([13]; preemergence) | Plant response rating, Kochia (kochia (Kochia scoparia); [16]) | Plant response rating (0 to 100), Kochia (kochia (Kochia scoparia); preemergence) | Plant response rating, Kochia (kochia (Kochia scoparia); [18]) | Plant response rating, Barnyardgrass [14, 20] | Plant response rating, Barnyardgrass [14, 21] | Plant response rating (0 to 100), Nightshade (Nightshade [15])
70: Plant response rating, Johnsongrass [13, 18] | Plant response rating (0 to 100), Sunflower (Sunflower)
10: Plant response rating, Corn (corn (Zea mays); [18])

CCC(CC)c1ccn(C2CCN(c3ccc(F)c(C(F)(F)F)c3)C2=O)n1 (stereo not shown) [Compound 144]
90: Plant response rating, Johnsongrass [13, 16] | Plant response rating, Kochia (kochia (Kochia scoparia); [17])
80: Plant response rating, Barnyardgrass [14, 21]
50: Plant response rating, Corn (corn (Zea mays); [16]) | Plant response rating, Corn (corn (Zea mays); [18]) | Plant response rating, Soybean (soybean (Glycine max); [16]) | Plant response rating, Soybean (soybean (Glycine max); [17]) | Plant response rating, Cocklebur [12, 17]
70: Plant response rating (0 to 100), Soybean (soybean (Glycine max); preemergence) | Plant response rating, Soybean (soybean (Glycine max); [18]) | Plant response rating (0 to 100), Sunflower (Sunflower)
30: Plant response rating, Corn (corn (Zea mays); [17]) | Plant response rating (0 to 100), Morningglory ([1]; preemergence) | Plant response rating, Morningglory [1, 18]
100: Plant response rating, Goosegrass [2, 16] | Plant response rating, Goosegrass [2, 17] | Plant response rating (0 to 100), Goosegrass ([2]; preemergence) | Plant response rating, Goosegrass [2, 18] | Plant response rating, Nightshade (Nightshade [4]; Rate 62 g/ha, scale 0 to 100) | Plant response rating, Nightshade (Nightshade [4]; [16]) | Plant response rating, Nightshade (Nightshade [4]; [19]) | Plant response rating, Cupgrass, Woolly [6, 16] | Plant response rating, Cupgrass, Woolly [6, 17] | Plant response rating (0 to 100), Cupgrass, Woolly ([6]; preemergence) | Plant response rating, Cupgrass, Woolly [6, 18] | Plant response rating, Crabgrass [7, 16] | Plant response rating, Crabgrass [7, 17] | Plant response rating (0 to 100), Crabgrass ([7]; preemergence) | Plant response rating, Crabgrass [7, 18] | Plant response rating, Bermudagrass [8, 16] | Plant response rating, Bermudagrass [8, 17] | Plant response rating (0 to 100 where 0 is no effect and 100 is complete control), Bermudagrass ([8]; preemergence) | Plant response rating, Bermudagrass [8, 18] | Plant response rating, Pigweed [9, 16] | Plant response rating, Pigweed [9, 17] | Plant response rating (0 to 100), Pigweed ([9]; preemergence) | Plant response rating, Pigweed [9, 18] | Plant response rating, Lambsquarters [10, 16] | Plant response rating, Lambsquarters [10, 17] | Plant response rating (0 to 100), Lambsquarters ([10]; preemergence) | Plant response rating, Lambsquarters [10, 18] | Plant response rating, Foxtail, Giant [11, 16] | Plant response rating, Foxtail, Giant [11, 17] | Plant response rating (0 to 100), Foxtail, Giant ([11]; preemergence) | Plant response rating, Foxtail, Giant [11, 18] | Plant response rating (0 to 100), Johnsongrass ([13]; preemergence) | Plant response rating, Johnsongrass [13, 18] | Plant response rating, Kochia (kochia (Kochia scoparia); [16]) | Plant response rating (0 to 100), Kochia (kochia (Kochia scoparia); preemergence) | Plant response rating, Kochia (kochia (Kochia scoparia); [18]) | Plant response rating, Barnyardgrass [14, 20] | Plant response rating (0 to 100), Nightshade (Nightshade [15])
60: Plant response rating (0 to 100), Corn (corn (Zea mays); preemergence) | Plant response rating, Cocklebur [12, 16] | Plant response rating (0 to 100), Cocklebur ([12]; preemergence) | Plant response rating, Cocklebur [12, 18]
0: Plant response rating, Morningglory [1, 16] | Plant response rating, Velvetleaf [3, 16] | Plant response rating, Velvetleaf [3, 17] | Plant response rating, Nutsedge [5, 16] | Plant response rating, Nutsedge [5, 17] | Plant response rating (0 to 100), Nutsedge ([5]; preemergence) | Plant response rating, Nutsedge [5, 18] | Plant response rating, Johnsongrass [13, 17]
20: Plant response rating (0 to 100), Velvetleaf ([3]; preemergence) | Plant response rating, Velvetleaf [3, 18]
